Results reported in patent US11452758B2, “Antimicrobial peptide derived from LL37 peptide and uses thereof” (INDUSTRY-ACADEMIC COOPERATION FOUNDATION, CHOSUN UNIVERSITY, priority 2018, dated 2022).
Where two headings read alike, the source gives them in different places. Where a SMILES comes first, the peptide text is derived from it.

Columns and labels:
Type in all cases: cell-based
mouse erythrocytes = assay: Hemolytic activity; conditions: 1 hour at 37° C.
Procedure: To compare the cytotoxicity among the peptides that are produced by the method of Example 1, erythrocyte hemolytic activity of the synthesized peptide was measured.
Specifically, erythrocytes of a mouse (Balb/c, 6 week old, female) were diluted in PBS (pH 7.0) to have concentration of 8%, and then subjected to a treatment with LL37, LL37-1, LL37-2, LL37-3 or LL37-4, to have concentration of 1.56, 3.13, 6.25, 12.5, 25.0, 50.0 or 100.0 μM/well for each followed by a reaction for 1 hour at 37° C. After that, the amount of hemoglobin contained in a supernatant collected by centrifuge at 1,000×g was determined by measuring the absorbance at a wavelength of 414 nm. As a control group to be used as a reference for cell disruption level, the supernatant collected by a treatment with 1% Triton X-100 (Sigma, USA) and a reaction for 1 hour at 37° C. was used to measure the absorbance. By setting the resulting absorbance value at 100% of the hemolytic activity, hemolysis of each peptide was calculated using the following formula. Erythrocyte disrupting ability (%)=(Absorbance A−Absorbance B)/(Absorbance C−Absorbance B)×100 (in the above formula, Absorbance A indicates the absorbance of a reaction solution treated with each peptide, in which the absorbance is measured at a wavelength of 414 nm; Absorbance B indicates the absorbance of a reaction solution treated with PBS, in which the absorbance is measured at a wavelength of 414 nm; and Absorbance C indicates the absorbance of a reaction solution treated with 1% Triton X-100, in which the absorbance is measured at a wavelength of 414 nm).

[1] = tested on: normal human fibroblast cell line (Hs27); assay: Cytotoxicity in normal cell line (MTT); conditions: Hs27; peptide 32 μM; 24 hours; MTT
Summary of the method: (§1)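 HaCaT and Hs27 cells (1×10^4/well, DMEM with 10% FBS) were seeded 24 h, then exposed 24 h to peptides at 0.5–32 μM. Viability was measured by MTT reduction (1 h), with DMSO-dissolved formazan read at 570 nm.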

[2] = tested on: normal human keratinocyte cell line (HaCaT); assay: Cytotoxicity in normal cell line (MTT); conditions: HaCaT; peptide 32 μM; 24 hours; MTT
Summary of the method: as §1

[3] = tested on: Acinetobacter baumannii KCTC 2508; conditions: A. baumannii KCTC 2508
Procedure: To determine the antimicrobial activity of peptides prepared by the method of above Example 1 in the presence of different ions in living body, minimal inhibitory concentration (MIC), i.e., lowest concentration of a peptide not allowing bacterial cell division, was measured.
Specifically, among the bacterial strains that are described in the above Table 2, Acinetobacter baumannii KCTC 2508 cells were cultured to a mid-log phase in MHB (Mueller Hinton Broth) medium, and, after diluting LL37-2 or LL37-4 peptide synthesized in the above Example 1 in a solution containing different kind of ions (sodium chloride, calcium chloride, magnesium chloride, and iron chloride) at different concentration, it was added to the plate in an amount of 50 μl per plate. After that, the cultured cells were diluted to cell concentration of 2×10^5 cells/50 μl, inoculated to a microtiter plate (NUNC, USA), and then cultured again for 18 hours at 37° C. By using a microtiter plate reader (Merck Elisa reader, Germany), absorbance at wavelength of 600 nm was measured and MIC value was determined for each strain. As a control, the MIC values of LL37, LL37-2 and LL37-4 for Acinetobacter baumannii KCTC 2508, which are shown in the above Table 3, were used.

Compound: CC[C@H](C)[C@H](NC(=O)[C@H](CCCNC(=N)N)NC(=O)[C@H](CCC(N)=O)NC(=O)[C@@H](NC(=O)[C@@H](NC(=O)[C@H](CCCNC(=N)N)NC(=O)[C@H](CCCCN)NC(=O)[C@H](Cc1ccccc1)NC(=O)[C@H](CCCCN)NC(=O)[C@@H](N)CCCCN)[C@@H](C)CC)C(C)C)C(=O)N[C@@H](CCCCN)C(=O)N[C@@H](CC(=O)O)C(=O)N[C@@H](Cc1ccccc1)C(=O)N[C@@H](CC(C)C)C(=O)N[C@@H](CCCNC(=N)N)C(=O)N[C@@H](CC(N)=O)C(N)=O [LL37-2, KKFKRIVQRIKDFLRN-NH2] (H-KKFKRIVQRIKDFLRN-NH2)
- Erythrocyte disrupting ability (mouse erythrocytes; peptide 1.56 μM): 0%
- Erythrocyte disrupting ability (mouse erythrocytes; peptide 3.13 μM): 0%
- Erythrocyte disrupting ability (mouse erythrocytes; peptide 6.25 μM): 1%
- Erythrocyte disrupting ability (mouse erythrocytes; peptide 12.5 μM): 1%
- Erythrocyte disrupting ability (mouse erythrocytes; peptide 25 μM): 1%
- Erythrocyte disrupting ability (mouse erythrocytes; peptide 50 μM): 1%
- Cell survival ability [1]: 97%
- Cell survival ability [2]: 107%
- Minimal inhibitory concentration of antimicrobial peptide ([3]; Calcium chloride 1.25 mM): 4 µM
- Minimal inhibitory concentration of antimicrobial peptide ([3]; Calcium chloride 2.5 mM): 4 µM
- Minimal inhibitory concentration of antimicrobial peptide ([3]; Calcium chloride 5 mM): 8 µM
- Minimal inhibitory concentration of antimicrobial peptide ([3]; Iron chloride 2 mM): 4 µM
- Minimal inhibitory concentration of antimicrobial peptide ([3]; Iron chloride 4 mM): 4 µM
- Minimal inhibitory concentration of antimicrobial peptide ([3]; Iron chloride 8 mM): 4 µM
- Minimal inhibitory concentration of antimicrobial peptide ([3]; Magnesium chloride 0.5 mM): 4 µM
- Minimal inhibitory concentration of antimicrobial peptide ([3]; Magnesium chloride 1 mM): 4 µM
- Minimal inhibitory concentration of antimicrobial peptide ([3]; Magnesium chloride 2 mM): 4 µM
- Minimal inhibitory concentration of antimicrobial peptide ([3]; Sodium chloride 50 mM): 8 µM
- Minimal inhibitory concentration of antimicrobial peptide ([3]; Sodium chloride 100 mM): 16 µM
- Minimal inhibitory concentration of antimicrobial peptide ([3]; Sodium chloride 150 mM): 32 µM
